Experimental data: US9326938B2 (National Yang Ming Unviversity, priority 2013, dated 2016)

What was measured:
[1] = Body weight of mice in antitumor study; type: in vivo, Balb-c/nude mice; conditions: 10 mg/kg i.v. on days 0 and 7, during the administration period
Method: (§1) The HCT116 cells were transplanted subcutaneously into the rear of 4-week female Balb-c/nude mice (1×10^6 cells/0.1 mL) At 4-6 weeks post-transplantation, HCT116 tumor-bearing mice (tumor volume: approximately 500 mm^3) were used in the antitumor activity study. Mice were treated i.v. via the tail vein on days 0 and 7. Animals were then injected with a drug PBS solution (free Dox, Dox-loaded polymer-incorporated nanoparticles, and Dox-loaded oligomer-contained nanoparticle complexes at a dose of 10 mg/kg). Tumor size was measured three weekly using a Vernier's caliper. To evaluate animal wellness and clinical status, the body weight of mice was recorded.

[2] = system: HCT116 tumor-bearing mice; assay: In vivo antitumor activity; parameters: species or system Balb-c/nude mice; conditions: 10 mg/kg i.v. on days 0 and 7, compared to control mice
Method: as §1

Q: For COc1cccc2c1C(=O)c1c(O)c3c(c(O)c1C2=O)C[C@@](O)(C(=O)CO)C[C@@H]3O[C@H]1C[C@H](N)[C@H](O)[C@H](C)O1 [free Dox, doxorubicin], which “Body weight of mice” value [1] is on record?
A: The value was “obvious weight loss”.

Q: What about the Tumor growth [2] of the same compound?
A: Its Tumor growth is “inhibited tumor growth”.
